Here are results for 3 compounds from patent US20120225097A1, “PIPERAZINECARBOXAMIDE DERIVATIVE USEFUL AS A MODULATOR OF FATTY ACID AMIDE HYDROLASE (FAAH)” (priority 2009, published 2012).

In data set [1] the target is T1, human FAAH (Homo sapiens, UniProt O00519).
T1 construct: expressed in transfected cells
T1 sequence (O00519 1-579): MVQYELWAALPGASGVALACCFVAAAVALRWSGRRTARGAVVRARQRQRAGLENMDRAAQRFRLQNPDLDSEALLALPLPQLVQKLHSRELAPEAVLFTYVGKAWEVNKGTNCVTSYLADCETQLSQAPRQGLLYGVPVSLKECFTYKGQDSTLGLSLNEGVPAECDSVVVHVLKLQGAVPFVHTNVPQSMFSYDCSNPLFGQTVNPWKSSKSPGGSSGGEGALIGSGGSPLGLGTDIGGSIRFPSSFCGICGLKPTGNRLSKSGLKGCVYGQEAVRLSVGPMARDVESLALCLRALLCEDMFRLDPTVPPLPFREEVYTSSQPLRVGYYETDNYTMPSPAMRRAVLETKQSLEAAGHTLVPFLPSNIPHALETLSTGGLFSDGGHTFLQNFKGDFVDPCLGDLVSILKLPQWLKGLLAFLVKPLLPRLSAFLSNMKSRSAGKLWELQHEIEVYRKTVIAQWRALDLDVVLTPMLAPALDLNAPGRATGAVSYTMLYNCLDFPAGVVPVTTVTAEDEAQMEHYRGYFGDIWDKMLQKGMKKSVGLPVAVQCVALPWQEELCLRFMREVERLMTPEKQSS
As to the kind of experiment: Assay Method 1: FAAH assay, anandamide hydrolysis in cell homogenate. It is filed as biochemical. To be noted: average value (standard error of the mean in parenthesis); 3H-AEA 80 nM, 1 h rt. The protocol: A. Transfection of Cells with Human FAAH
A 10-cm tissue culture dish with a confluent monolayer of SK-N-MC cells was split 2 days (d) prior to transfection. Using sterile technique, the media was removed and the cells were detached from the dish by the addition of trypsin. One fifth of the cells were then placed onto a new 10-cm dish. Cells were grown in a 37° C. incubator with 5% CO2 in Minimal Essential Media Eagle with 10% Fetal Bovine Serum. After 2 d, cells were approximately 80% confluent. These cells were removed from the dish with trypsin and pelleted in a clinical centrifuge. The pellet was re-suspended in 400 μL complete media and transferred to an electroporation cuvette with a 0.4 cm gap between the electrodes. Supercoiled human FAAH cDNA (1 μg), corresponding to NCBI accession NM_001441, was added to the cells and mixed. The voltage for the electroporation was set at 0.25 kV, and the capacitance was set at 960 μF. After electroporation, the cells were diluted into complete media (10 mL) and plated onto four 10-cm dishes. Due to variability in the efficiency of electroporation, four different concentrations of cells were plated. The ratios used were 1:20, 1:10, and 1:5, with the remainder of the cells being added to the fourth dish. The cells were allowed to recover for 24 h before adding the selection media (complete media with 600 μg/mL G418). After 10 d, dishes were analyzed for surviving colonies of cells. Dishes with well-isolated colonies were used. Cells from individual colonies were isolated and tested.
T84 frozen cell pellets or transfected SK-N-MC cells (contents of 1×15 cm culture dishes) were homogenized in 50 mL of FAAH assay buffer (125 mM Tris, 1 mM EDTA, 0.2% Glycerol, 0.02% Triton X-100, 0.4 mM Hepes, pH 9). The assay mixture consisted of 50 μL of the cell homogenate, 10 μL of the test compound, and 40 μL of anandamide [1-^3H-ethanolamine] (^3H-AEA, Perkin-Elmer, 10.3 Ci/mmol), which was added last, for a final tracer concentration of 80 nM. The reaction mixture was incubated at rt for 1 h. […]

Data set [2] deals with heart muscle. Nature of the data set: Assay Method 4: rat screening toxicity protocol. It is filed as in vivo. Particulars: 300 mg/kg daily oral, up to 4 days, male rats. The method, then: Rat Screening Toxicity Protocol
Male Crl:CD® (SD) rats approximately 8 weeks of age and weighing approximately 200 to 350 grams at initiation of dosing, were supplied by Charles River Laboratories, Hollister, Calif. Rats were individually housed in solid bottom plastic cages with 0.25 inch Cobb Bedding. Study rooms were maintained on a 12-hour light/dark cycle, with a temperature range of 64 to 79° F., and a relative humidity range of 30 to 70%. Rats were fed ad libitum (except where noted) with Rodent Diet 5008 supplied by PMI® Nutrition International, Richmond, Ind. Water was provided ad libitum by an automatic watering system and/or water bottles. The animals were quarantined for at least 5 days (prior to treatment period). Rats were selected on the basis of predose evaluations and randomly assigned to groups using a computer-generated randomization method based on body weight.
A vehicle treated group was dosed to match the highest dose volume (mL/kg) used. The test compound was administered orally daily. Test compounds were stored at room temperature. 4-({3-[(4-chlorophenyl)oxy]phenyl}methyl)-N-pyridin-3-ylpiperazine-1-carboxamide was dosed in solution using 20% cyclodextrin as the vehicle. N-pyridin-3-yl-4-{3-[4-(trifluoromethyl)phenoxy]benzyl}piperazine-1-carboxamide bis-hydrochloride dihydrate was dosed in solution using water as the vehicle. Rats in the vehicle treated and test article treated were dosed for up to 4 days. Mortality checks were performed at least once a day on all animals pre-dose and post-dose. Clinical observations were performed at least once during the pre-dose period. Clinical observations were recorded prior to dosing, at least once after daily dosing, and prior to scheduled necropsy for animals assessed for toxicology. Body Weights were determined at least once during the pre-dose period, prior to the first dose, once during dose administration and once after the last dose, and once prior to necropsy for tissue body weight ratios. […] Observations were recorded at necropsy and tissue trimming. […] Clinical pathology was not determined on these animals. […]

Where a name gives a salt, the structure may show the parent alone.

In general, IC50 refers to the point on the concentration scale where inhibition reaches its midpoint. With `O=C(Nc1cccnc1)N1CCN(Cc2cccc(Oc3ccc(Cl)cc3)c2)CC1` [4-({3-[(4-Chlorophenyl)oxy]phenyl}methyl)-N-pyridin-3-ylpiperazine-1-carboxamide], the IC50 in data set [1] came to 2.4 nM. Besides, the “lesions in heart muscle” value in data set [2] is on record as “developed lesions in heart muscle”.
Take `O=C(Nc1cccnc1)N1CCN(Cc2cccc(Oc3ccc(Br)cc3)c2)CC1` [4-[3-(4-Bromophenoxy)benzyl]-N-pyridin-3-ylpiperazine-1-carboxamide]: the IC50 in data set [1] stood at 1 nM.
On to `O=C(Nc1cccnc1)N1CCN(Cc2cccc(Oc3ccc(C(F)(F)F)cc3)c2)CC1` [Example 1, N-Pyridin-3-yl-4-{3-[4-(trifluoromethyl)phenoxy]benzyl}piperazine-1-carboxamide, bis-hydrochloride dihydrate], for which the IC50 in data set [1] is 1 nM. Moreover, the “lesions in heart muscle” value is recorded as “absent” in data set [2] (listed as N-pyridin-3-yl-4-{3-[4-(trifluoromethyl)phenoxy]benzyl}piperazine-1-carboxamide , bis-hydrochloride dihydrate) and “lacked such lesions” in data set [2] (listed as N-pyridin-3-yl-4-{3-[4-(trifluoromethyl)phenoxy]benzyl}piperazine-1-carboxamide, bis-hydrochloride dihydrate).
